# According to the supplement of paper PMC4954754:
# ± gives the uncertainty stated by the source.
# Tests used:
# Settings in all cases: 18 h
# HEK293T-Rex XBP1-RLuc [1] = test: maximal XBP1-RLuc activation from dose-response fit, relative to thapsigargin (% of thapsigargin); higher = stronger activation
# Description: (§1)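 Dose-response of hit compounds in HEK293T-Rex cells stably expressing ERSE-FLuc or XBP1-RLuc reporters, 18 hr treatment, 1536-well; luminescence normalised to 500 nM thapsigargin (100%) and DMSO (0%), fitted to give EC50 (M) and maximal activation; '>' marks EC50 above the top tested dose (~17 µM).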
# HEK293T-Rex XBP1-RLuc [2] = test: EC50 for XBP1-RLuc reporter activation
# Description: as §1
# HEK293T-Rex ERSE-FLuc [3] = test: EC50 for ERSE-FLuc reporter activation
# Description: as §1
# HEK293T-Rex ERSE-FLuc [4] = test: maximal ERSE-FLuc activation from dose-response fit, relative to thapsigargin (% of thapsigargin); higher = stronger activation
# Description: as §1
SMILES,maximal XBP1-RLuc activation (HEK293T-Rex XBP1-RLuc [1]),EC50 for XBP1-RLuc reporter activation (HEK293T-Rex XBP1-RLuc [2]) [µM],EC50 for ERSE-FLuc reporter activation (HEK293T-Rex ERSE-FLuc [3]) [µM],maximal ERSE-FLuc activation (HEK293T-Rex ERSE-FLuc [4])
COc1cccc(C(=O)/C=C/Nc2cc(C)ccc2O)c1,72.5 ± 3.2,6.99,4,229 ± 0.77
CCc1nc2sc(C(=O)c3ccccc3)c(N)c2cc1C,4.69 ± 3.2,> 16.3,> 16.3,25.4 ± 6.3
Nc1ccc2nc(-c3ccc(Cl)cc3)[nH]c2c1,35.3 ± 12,> 16.9,> 5.63,68.5 ± 6.7
CNC(=O)c1ccccc1Nc1cc(NC(=O)Cc2ccc(F)c(F)c2)ncc1C(F)(F)F,2.4 ± 1.1,> 16.9,> 16.9,3.28 ± 7.2
CC(=O)Nc1ccc2nc(-c3ccc(OC(C)=O)cc3)sc2c1,67 ± 2.2,11.3,> 16.9,15.7 ± 1.8
CCOC(=O)c1sc(NC(=O)c2cccc3ccccc23)nc1C,3.29 ± 3.4,> 16.9,> 16.9,25.3 ± 5.7
NC(=O)c1c(NC(=O)COc2ccccc2)sc2c1CCC2,2.55 ± 0.7,> 13.2,> 13.2,16.2 ± 1.4
Nc1ccc2sc(-c3cc(Cl)c(N)c(Cl)c3)nc2c1,14.9 ± 1.8,> 16.9,> 16.9,22 ± 6.1
CC(=O)Oc1cc(N2CCOCC2)c(OC(C)=O)c2c1C(=O)c1ccccc1C2=O,3.44 ± 3.3,> 16.9,> 16.9,9.5 ± 2.7
O=C(CCCN1CCC2(CC1)C(=O)N(Cc1cccc(F)c1)CN2c1ccccc1)c1ccc(F)cc1,214 ± 7.7,4.02,4.46,187 ± 19
O=C(N/N=C/c1cccc(O)c1O)c1ccccc1I,17.8 ± 3.8,> 16.9,> 16.9,39.5 ± 4.5
Nc1ccccc1NC(=O)c1ccc(Cl)cc1,34.9 ± 0.91,> 17.2,7.9,82.8 ± 4.7
CCN1C(=O)/C(=C\c2ccc(O)cc2O)SC1=S,13.3 ± 1.5,> 16.9,> 16.9,30.9 ± 10
O=C(N/N=C\C(Br)=C\c1ccccc1)c1n[nH]c2c1CCCC2,9.49 ± 5.7,> 16.9,> 16.9,17.2 ± 4.7
O=c1cc(-c2ccc(O)c(O)c2)oc2ccccc12,43.9 ± 0.95,> 17.1,> 17.1,32.7 ± 5
CCCNc1ccnc(N2CCc3ccccc3C2)n1,1.68 ± 0.28,> 17.7,> 17.7,12 ± 7.5
CC(C)CNC(=O)c1cc(-c2ccc(F)cc2)no1,4.76 ± 1.8,> 16.9,> 16.9,20.8 ± 5.8
O=C1c2cc(O)ccc2-c2ccc(O)cc21,73.2 ± 6.5,8.87,8.44,65.1 ± 18
CCCCNNC(=O)c1ccc(Br)cc1,8.05 ± 3.5,> 17.4,4.91,95.4 ± 25
CCCCCOc1ccc(N/C(N)=N/c2nc(C)cc(C)n2)cc1,152 ± 12,4.05,10.4,68 ± 8.8
O=C(NCCc1ccc(O)cc1)c1ccc2nc(-c3csc4ccccc34)sc2c1,105 ± 13,13.3,11.6,99.4 ± 20
Nc1ccc(-c2nc3cc(N)c(Cl)cc3[nH]2)cc1,17.6 ± 0.39,> 14.7,> 14.7,29.6 ± 7.5

SMILES,maximal XBP1-RLuc activation (HEK293T-Rex XBP1-RLuc [1]),EC50 for XBP1-RLuc reporter activation (HEK293T-Rex XBP1-RLuc [2]) [µM],EC50 for ERSE-FLuc reporter activation (HEK293T-Rex ERSE-FLuc [3]) [µM],maximal ERSE-FLuc activation (HEK293T-Rex ERSE-FLuc [4])
C=CCNC(=O)c1cc(-c2ccc(F)cc2)on1,6.35 ± 5.3,> 16.9,16.7,50.2 ± 7.4
COc1ccc2c(Cl)c(C(=O)Nc3ccccc3C(N)=O)sc2c1,6.81 ± 1.3,> 16.9,> 16.9,21.3 ± 1.3
O=[N+]([O-])c1ccccc1NC(=S)N/N=C/c1ccc(O)c(O)c1,28.2 ± 2.5,> 18.3,> 18.3,21.3 ± 3.4
C/C(=N\NC(=O)c1n[nH]c2c1CCCC2)c1ccc(Br)cc1,8.77 ± 2,> 16.9,> 16.9,32.5 ± 9.9
CCOc1ccc(NC(=O)c2ccc3c(c2)OCO3)c([N+](=O)[O-])c1,0.524 ± 1.2,> 18.6,> 18.6,14.7 ± 3
CCOc1cccc(C(=O)Nc2ccc(-c3nc4ccc(C(=O)c5ccccc5)cc4[nH]3)cc2)c1,66.4 ± 12,2.33,> 11.5,25.2 ± 5
N#Cc1c(NC(=O)c2ccc(Br)cc2)sc2c1CCCC2,1.87 ± 3.4,> 12.7,> 12.7,17.3 ± 2.2
COCCNC(=O)c1cc(-c2cccs2)on1,9.6 ± 3.2,> 16.9,15.5,54.1 ± 14
CCOc1ccc2nc(NC(=O)c3ccn(C)n3)sc2c1,4.53 ± 2.8,> 14.4,> 14.4,10.9 ± 2.4
COc1cccc(C(=O)Nc2sc3c(c2C#N)CC(C)CC3)c1 (configuration not stated),2.09 ± 1.1,> 16.6,> 16.6,23.5 ± 8
COC(=O)c1ccc(C(=O)Nc2ccccc2N)cc1,28 ± 2.5,> 17.8,9.08,91.1 ± 14
Cc1cc(C)nc(/N=C(\N)Nc2ccc(OCc3ccc(Cl)cc3)cc2)n1,88.2 ± 3.4,2.03,> 14,47.3 ± 7.6
CCN(CC)c1ccc2cc(-c3nc4ccccc4n3C)c(=O)oc2c1,2.95 ± 3.5,> 10.6,> 10.6,22.8 ± 1.6
CCCCCC(=O)Nc1ccc(C(=O)Nc2ccccc2O)cc1,21.2 ± 1.6,> 15.6,8.09,112 ± 10
Cc1ccc(O)c(N/C=C/C(=O)c2ccc(F)cc2)c1,84.1 ± 19,11.9,3.31,303 ± 13
OCCNc1nc(Nc2ccc(Cl)c(Cl)c2)nc2ccccc12,73.7 ± 9,4.98,4.13,144 ± 47
COc1ccc2oc(=Nc3cc(F)ccc3F)c(C(N)=O)cc2c1,1.95 ± 1.5,> 14.7,> 14.7,19.1 ± 2.2
O=C(CC(=O)Nc1ccc2nc3n(c(=O)c2c1)CCCCC3)NCc1ccco1,40.7 ± 7.4,> 16.9,8.59,77.9 ± 9.8
O=C(Nc1ccc(O)cc1)c1ccc2ccccc2c1,16.2 ± 1.5,> 16.9,> 16.9,31.4 ± 2.5
Cc1ccc(NC(=S)NC(=O)C(=O)Nc2ccccc2)cc1,2.05 ± 0.91,> 16.9,> 16.9,6.38 ± 2.8
O=C1N/C(=C/c2ccc(O)cc2)C(=O)N1c1cccc(Cl)c1,100 ± 3,3.04,3.19,85.8 ± 20
